Experimental findings from PubChem BioAssay (NCI) are described below.

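Dose response: 5 concentrations. Exposure: 48 h. Format: 96-well plates. Endpoint: linear interpolation; highest concentration if not reached. The concentration for 50% growth inhibition is given as GI50. TGI: concentration producing complete growth inhibition.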

Common to all, as to experiment: growth of human tumour cells (NCI), 48 h
The test system of test [1] is 786-0 renal.
Test [2] concerns A498 renal.
The test system of test [3] is COLO 205 colon.
Test [4] deals with HCT-15 colon.
Test [5] has as its system HT29 colon.
The subject of test [6] is K-562 leukemia.
Test [7] concerns SF-268 CNS.
The test system of test [8] is U251 CNS.
Test [9] has as its system HCC-2998 colon.
In test [10] the test system is MDA-N.
In test [11] the test system is MCF7 breast.

With `COc1ccc(/C=N/NC(=O)NCCNCCO)cc1`, the TGI in [1], in test [2], in [3], in test [4], in [5] and in test [6] was more than 100 µM throughout. In addition, the TGI in test [7] and in [8] was more than 100 µM each time.
For the compound `Cc1c2cc[n+](C)cc2c(C)c2c1[nH]c1ccc(OC(C)(C)C)cc12`, the TGI in [1], in test [2], in test [3], in [9], in test [4] and in test [5] was more than 100 µM each time. Also, the TGI in test [6], in test [7] and in test [8] was more than 100 µM in each case.
Consider `O=[N+]([O-])c1cc(-c2ccc([As](=O)(O)O)cc2)ccc1[As](=O)(O)O`, for which the TGI in [1], in [2], in [4], in test [5], in [6] and in test [10] was more than 100 µM in each case. Also, the TGI in test [7] and in [8] was more than 100 µM in each case.
Consider `Cc1cc2nc3c(C)c4ccccc4c(C)n3c2cc1C`, for which the TGI is 6.62 µM in test [1]; more than 10 µM in test [3]; more than 10 µM in test [9]; 6.14 µM in [4]; more than 10 µM in [5]; more than 10 µM in test [6]. For the same compound, the TGI in test [11] is more than 10 µM; in test [10] it was 7.8 µM; in test [7], more than 10 µM; in test [8] it was more than 10 µM.
For `O=C(C#Cc1ccccc1)Nc1ccccc1CC(c1c[nH]c2ccccc12)c1c[nH]c2ccccc12`, the TGI in [1] is 29.4 µM; in test [3] it was 44.2 µM; in test [9] it was 50.6 µM; in test [5], 87.9 µM; in test [6] it was 36.5 µM; in [7], more than 100 µM.
For `Nc1nc2c(nnn2C2C=C(CO)C(O)C2O)c(=O)[nH]1` (centres undefined), the TGI in test [1], in test [2], in test [3], in test [9], in test [4] and in [5] was more than 100 µM throughout. Further, the TGI in test [6], in [7] and in test [8] was more than 100 µM each time.
Consider `C#CCN(Cc1ccc2nc(-c3ccccc3)c(Cl)nc2c1)c1ccc(Cl)c(Cl)c1`, for which the TGI in test [1] was more than 100 µM; in [2], more than 100 µM; in [3] it was more than 100 µM; in [9], 96.8 µM; in [4], more than 100 µM; in [5], more than 100 µM. In addition, the TGI in test [6], in [7] and in [8] was more than 100 µM in each case.
For the compound `CCN1CC2(CO)CCC(OC)C34C5CC6C(OC)CC(O)(C5C6OC)C(O)(C(OC)C23)C14` (centres undefined), the TGI in test [2], in test [3], in [9], in test [4], in [5] and in test [6] was more than 375 µM throughout. Besides, the TGI in test [11], in test [7] and in [8] was more than 375 µM throughout.
In the case of `Nc1ccc(Oc2ccc(C34CC5CC(C3)CC(c3ccc(Oc6ccc(N)c(O)c6)cc3)(C5)C4)cc2)cc1O`, the TGI was more than 46 µM in test [1]; 36.1 µM in [2]; 2.85 µM in [3]; 4.37 µM in test [4]; 5.16 µM in test [5]; more than 100 µM in test [6]. Moreover, the figures for the TGI in test [11], in test [7] and in test [8] were 8.95 µM, 2.9 µM and 2.72 µM, respectively.
As for `Cn1cnc([N+](=O)[O-])c1Sc1nnc(-c2ccc(Cl)cc2)n1C`, the TGI in [2] worked out at 81.8 µM; in test [3] it was 24.3 µM; in test [9], 32.3 µM; in test [5] it was 32 µM; in test [6], 34.2 µM; in test [7] it was 54.7 µM. Also, the TGI in [8] is 30.4 µM.
Turning to `CC(=O)O[C@H]1C(=O)[C@@]2(C)C(C(OC(=O)c3ccccc3)[C@]3(O)CC(OC(=O)C(O)C(NC(=O)c4cccc(Cl)c4)c4ccccc4)C(C)=C1C3(C)C)[C@]1(OC(C)=O)CO[C@@H]1C[C@@H]2O` (some centres undefined), the TGI in [1] was more than 10 µM; in test [3] it was 4.58 µM; in test [9], 4.1 µM; in [4], more than 10 µM; in [5], more than 10 µM; in test [6], more than 10 µM. Also, the TGI in test [11] was more than 10 µM; in [10] it was 0.334 µM; in [7] it was more than 10 µM; in test [8], 8.9 µM.
`CCN(CC)CCNC(=O)C1COc2ccc(-c3cc(=O)c4ccccc4o3)cc2O1` (centres undefined): the TGI was 30.3 µM in test [2]; 34 µM in test [3]; 35.4 µM in test [9]; 31.8 µM in test [4]; 34.6 µM in [5]; 49 µM in test [6]. Also, the TGI was 44.6 µM in test [11], 55.9 µM in test [7] and more than 65.2 µM in [8].
With `O=C(/C=C/c1cc2ccccc2[nH]c1=O)c1ccc(O)cc1`, the GI50 was 8.44 µM in test [2]; 4.51 µM in test [3]; 4.13 µM in test [9]; 2.71 µM in test [4]; 3.61 µM in test [5]; 3.89 µM in [6]. Moreover, the results for the GI50 in [11], in test [7] and in test [8] were 3.49 µM, 3.76 µM and 2.6 µM, respectively. The TGI in test [2] is 21.3 µM; in [3], 19.7 µM; in [9], 16 µM; in test [4], 12.8 µM; in test [5], 12.1 µM; in test [6] it was more than 100 µM. For the same compound, the TGI in test [11] stood at 16.8 µM; in test [7], 23.3 µM; in test [8], 10.9 µM.
As for `CCOC1=C2N=C(C(CC)c3ccc(F)cc3)N=C2C(=O)c2ccccc21` (centres undefined), the TGI in [1] is more than 100 µM; in test [3], 47 µM; in test [9] it was more than 100 µM; in [4], more than 100 µM; in test [5], 45.3 µM; in test [6] it was more than 100 µM. In addition, the TGI in test [7] came to 99.4 µM; in [8] it was 53.5 µM.
